The target of data set [1] is T1, Arginase-2, mitochondrial (Homo sapiens, UniProt P78540).
T1 sequence (P78540 whole entry): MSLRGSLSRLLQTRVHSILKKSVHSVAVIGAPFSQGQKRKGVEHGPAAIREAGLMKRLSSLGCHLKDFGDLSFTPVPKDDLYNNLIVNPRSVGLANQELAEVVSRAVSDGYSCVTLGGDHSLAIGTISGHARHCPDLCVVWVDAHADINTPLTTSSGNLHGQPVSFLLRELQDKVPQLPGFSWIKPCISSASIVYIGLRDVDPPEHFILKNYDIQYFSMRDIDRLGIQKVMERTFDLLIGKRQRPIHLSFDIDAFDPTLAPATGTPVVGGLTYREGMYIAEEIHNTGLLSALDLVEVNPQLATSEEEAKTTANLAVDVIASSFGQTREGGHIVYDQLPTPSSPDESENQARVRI
Kind of data set: Inhibition of human arginase-2 assessed as L-arginine conversion to L-ornithine measured as urea level after 1 hr by colorimetric assay.

Data set [2] concerns the target T2, Arginase-1 (Homo sapiens, UniProt P05089).
T2 sequence (P05089 whole entry): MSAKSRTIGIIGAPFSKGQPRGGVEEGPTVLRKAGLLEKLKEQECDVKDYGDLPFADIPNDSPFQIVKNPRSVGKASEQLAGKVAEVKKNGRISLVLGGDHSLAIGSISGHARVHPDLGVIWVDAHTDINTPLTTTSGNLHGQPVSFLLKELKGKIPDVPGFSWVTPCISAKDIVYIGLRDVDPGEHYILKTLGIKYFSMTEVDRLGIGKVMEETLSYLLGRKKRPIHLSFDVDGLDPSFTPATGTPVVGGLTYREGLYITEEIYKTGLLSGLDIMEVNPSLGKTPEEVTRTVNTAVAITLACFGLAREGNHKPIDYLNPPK
As to the kind of experiment: Inhibition of human arginase-1 assessed as L-arginine conversion to L-ornithine measured as urea level after 1 hr by colorimetric assay.

Data set [3] is described as follows: Bioavailability in ip dosed rat. The class given is ADME, organism-based. As to conditions: in vivo.
Data set [4] in a line: Octanol-phosphate buffer partition coefficient, log D of the compound by shake-flask method. The class given is physicochemical.
The nature of data set [5]: Mean residence time in rat. The class given is ADME, organism-based. Conditions: in vivo.
The nature of data set [6]: Oral bioavailability in rat. The format is ADME, organism-based. Conditions: in vivo.
Data set [7] is described as follows: Clearance in iv dosed rat. The format is ADME, organism-based. Conditions: in vivo.
Data set [8] is described as follows: Volume of distribution at steady state in iv dosed rat. The format is ADME, organism-based. As to conditions: in vivo, read-out: Vdss.
The test system of data set [9] is Plasma. Kind of data set: Initial plasma concentration in rat. The format is ADME.
A short description of data set [10]: Half life in iv dosed rat. Conditions: in vivo. The class given is ADME, organism-based.
The subject of data set [11] is Rattus norvegicus. Kind of data set: AUC (0 to infinity) in iv dosed rat. Conditions: in vivo. The format is ADME, organism-based, Plasma. Further details: route intravenous, time infinity.
The subject of data set [12] is Rattus norvegicus. As to the kind of experiment: AUC (0 to t) in iv dosed rat. As to conditions: in vivo. The format is ADME, organism-based, Plasma.

Results on 17 compounds are retold here after ChEMBL document CHEMBL2417426, “Synthesis of quaternary α-amino acid-based arginase inhibitors via the Ugi reaction” (Bioorg Med Chem Lett, 2013).

By IC50 is commonly meant the point on the concentration scale where inhibition reaches its midpoint. The bioavailability is dose-corrected exposure relative to a reference, in per cent. Usually logD stands for the decadic logarithm of the distribution of all forms, ionised or not, between an organic phase and buffer at a given pH. Low readings indicate a more hydrophilic compound, high ones a more lipophilic compound. As usually defined, the MRT is a mean duration of stay, worked out from the concentration-time curve. Broadly, the clearance is the volume of plasma or blood freed of the substance per unit of time. Usually half-life stands for the time in which the quantity being followed falls by half.

`N[C@@H](CCCCB(O)O)C(=O)O`: the IC50 in data set [1] is 2150 nM; in [2], 1470 nM.

`NC(CCCCB(O)O)(C(=O)O)C1CCN(C(=O)Nc2ccc(Cl)cc2)CC1` (racemic) yielded a bioavailability in data set [3] of less than 5%. The logD in data set [4] was 0.5. Also, the IC50 in [1] was 1100 nM; in data set [2] it was 720 nM.

Consider `NC(CCCCB(O)O)(C(=O)O)C1CCN(C(=S)NCc2ccc(Cl)cc2)CC1` (racemic), for which the bioavailability in data set [3] was less than 5%. In addition, the half-inhibitory concentration (IC50) was determined as 1120 nM in data set [1] and 330 nM in data set [2].

As to `NC(CCCCB(O)O)(C(=O)O)C1CC2CCC(C1)N2` (racemic), the bioavailability in [3] is less than 5%. The concentration for half-maximal inhibition (IC50) in data set [1] was determined as 85 nM; in data set [2], 80 nM.

The compound `NC(CCCCB(O)O)(C(=O)O)C1CC2CCC(C1)N2Cc1ccccc1` (racemic) showed a bioavailability in data set [3] of less than 5%. The IC50 in data set [1] was found to be 47 nM; in data set [2] it was 24 nM.

Take `NC(CCCCB(O)O)(C(=O)O)C1CC2CCC(C1)N2Cc1ccc(Cl)cc1` (racemic): the bioavailability in data set [3] was less than 5%. The IC50 in [1] turned out to be 30 nM; in [2] it was 17 nM.

For `NC(CCCCB(O)O)(C(=O)O)C1CC2CCC(C1)N2Cc1ccc(Cl)c(Cl)c1` (racemic), the figures for the bioavailability in data set [3] and in [6] were more than 50% and 0.25%, respectively. The compound also came in with an MRT in [5] of 0.912 h. Besides, in data set [7], the clearance is 16.8 mL/min/kg. The Vd in data set [8] turned out to be 0.918 L/kg. This compound also registered a C0 in data set [9] of 4770 ng/mL. In data set [10], this compound gave a half-life of 3.12 h. The compound further showed an AUC in data set [11] of 0.994 kg·h/L. The compound also had an AUCt in [12] of 0.951 kg·h/L. The logD in data set [4] stood at 2.4. The results for the IC50 in data set [1] and in [2] were 23 nM and 21 nM, respectively.

In the case of `NC(CCCCB(O)O)(C(=O)O)C1CC2CCC(C1)N2Cc1ccc(F)c(F)c1` (racemic), in [3], the bioavailability is less than 5%. Further, the IC50 in data set [1] is 33 nM; in [2], 22 nM.

Take `NC(CCCCB(O)O)(C(=O)O)C1CCNCC1` (racemic): the bioavailability in data set [3] is less than 5%. The same compound displayed a logD in data set [4] of -2.8. Also, the figures for the IC50 in [1] and in [2] were 640 nM and 380 nM, respectively.

`CC(C)CCN1CCC(C(N)(CCCCB(O)O)C(=O)O)CC1` (racemic) showed a bioavailability in data set [3] of less than 5%. This compound displayed a logD in data set [4] of -1.1. For the same compound, the IC50 was 230 nM in data set [1] and 180 nM in [2].

In data set [3], `NC(CCCCB(O)O)(C(=O)O)C1CCN(Cc2ccccc2)CC1` (racemic) registered a bioavailability of less than 5%. In [4], this compound had a logD of -0.4. The IC50 in data set [1] was 230 nM; in data set [2], 200 nM.

`NC(CCCCB(O)O)(C(=O)O)C1CCN(Cc2ccc(Cl)cc2)CC1` (racemic) had a bioavailability in [3] of less than 5%. The compound further came in with a logD in data set [4] of 0.3. Moreover, the results for the IC50 in data set [1] and in [2] were 240 nM and 190 nM, respectively.

Regarding `NC(CCCCB(O)O)(C(=O)O)C1CCN(Cc2ccc(Cl)c(Cl)c2)CC1` (racemic), the bioavailability is more than 50% in [3] and 4.8% in data set [6]. Moreover, the MRT in data set [5] is 2.14 h. In data set [7], this compound came in with a clearance of 7.87 mL/min/kg. In data set [8], the Vd turned out to be 1.51 L/kg. The same compound registered a C0 in [9] of 4720 ng/mL. The compound also had a half-life in data set [10] of 7.83 h. In addition, the AUC in data set [11] worked out at 2.12 kg·h/L. This compound also registered an AUCt in [12] of 2.05 kg·h/L. In addition, the log distribution coefficient (logD) in data set [4] worked out at 1.5. The IC50 in data set [1] amounted to 290 nM; in data set [2], 200 nM.

With `NC(CCCCB(O)O)(C(=O)O)C1CCN(CCc2ccc(Cl)cc2Cl)CC1` (racemic), in data set [3], the bioavailability was less than 5%. In addition, the IC50 was determined as 330 nM in data set [1] and 210 nM in data set [2].

Consider `NC(CCCCB(O)O)(C(=O)O)C1CCN(CCCc2ccc(Cl)cc2Cl)CC1` (racemic), for which, in data set [3], the bioavailability was less than 5%. In data set [4], the logD stood at 1.2. The IC50 was 50 nM in data set [1] and 100 nM in data set [2].

`NC(CCCCB(O)O)(C(=O)O)C1CCN(CCCc2ccc(C(F)(F)F)cc2)CC1` (racemic) displayed a bioavailability in data set [3] of less than 5%. In addition, the values for the IC50 in data set [1] and in data set [2] were 70 nM and 120 nM, respectively.

`Cc1ccc(S(=O)(=O)N2CCC(C(N)(CCCCB(O)O)C(=O)O)CC2)cc1` (racemic): the bioavailability in data set [3] was less than 5%. In addition, the results for the IC50 in data set [1] and in data set [2] were 4650 nM and 6650 nM, respectively.
